Laboratory results from patent US20160264593A1 (priority 2013, published 2016).
Like-named read-outs stand apart in the source and are kept apart here.

Test: Pharmacokinetic study of 153 (and metabolite endothal) in SD rats, iv and po; plasma, liver, brain
Assay type: in vivo
Details: for 153 plasma concentration (title) / Liver concentration: PO per title; for MRT last: read-out: MRT (0-t)
Procedure: The blood, liver and brain tissue samples were collected at predetermined times from rats. […] Compound were diluted shortly before use in 4% sodium bicarbonate for sterile injection (this is the standard pediatric solution of NaHCO3 with a pH of about 8.5).
Compound 153 was freshly prepared by diluting the drugs shortly before use in 4% sodium bicarbonate for sterile injection (this is the standard pediatric solution of NaHCO3 with a pH of about 8.5). The final concentrations of 153 solutions were 0.25 mg/mL. The 153 solutions were administered via iv or po route at dose volume of 5 ml/kg according to the latest body weight. Compound 157 was freshly prepared by diluting the drugs shortly before use in 4% sodium bicarbonate for sterile injection (this is the standard pediatric solution of NaHCO3 with a pH of about 8.5). The final concentrations of […] solutions were 0.3 mg/mL. The 157 solutions were administered via iv or po route at dose volume of 5 ml/kg according to the latest body weight.
Twelve (12) female SD rats per group were dosed by iv with 153 or 157. The rats were fasted overnight prior to dosing, with free access to water. Foods were withheld for 2 hours post-dose. Blood, liver and brain tissue samples in two animals each group were collected at each time point, within 10% of the scheduled time for each time point. Two extra animals were used for analytic method development.
Blood (>0.3 mL) were collected via aorta abdominalis in anaesthetic animals into tubes containing heparin at 15 min, 1, 2, 6, 10 and 24 hours after iv administration. Liver and brain tissues were collected immediately after animal death. The liver and brain tissues were excised and rinsed with cold saline to avoid blood residual. Upon collection, each sample was placed on ice and the blood samples were subsequently centrifuged (4° C., 11000 rpm, 5 min) to separate plasma. The obtained plasma, liver and brain tissue samples were stored at −70° C. until LC-MS/MS analysis.
Two (2) female SD rats per group were dosed by po with 153 or 157. The rats were fasted overnight prior to dosing, with free access to water. Foods were withheld for 2 hours post-dose. Blood samples (>0.3 mL) were collected via aorta abdominalis in anaesthetic animals into tubes containing heparin at 30 min, 1, 2, 6, 10 and 24 hours after po administration.
To each sample, 20 μL IS-D (for blank samples, 20 μL acetonitrile:water (1:1) was added) and 300 μl acetonitrile was added. The sample mixture was vortexed for approximately 3 min. After centrifugation at 10000 rpm for 5 min at 4° C., 100 μL of the upper layer was transferred to a new tube and added 200 μL 0.4% formic acid in water (pH 6.0). The mixture was vortexed for approximately 3 min before injected onto the LC/MS/MS system for analysis.
On the day of the assay, the frozen liver and brain samples were thawed unassisted at room temperature. An about 200 mg weighed sample of each thawed tissue was placed into a plastic tube with water (0.6 mL) to facilitate homogenization. Tissue processing was conducted using a homogenizer for approximately 1 min, 200 μl homogenate was transferred into a fresh Eppendorf tube. To each tube, 50 μL IS-D was added and mixed. Then 600 μl acetonitrile was added and the sample mixture was vortexed for approximately 3 min. After centrifugation at 10000 rpm for 5 min at 4° C., 400 μL of the upper layer was transferred to a new tube and evaporate the supernatant to dryness at 35° C. Reconstitute the residue with 200 μL of 0.4% formic acid in water (pH6.0), and vortex for 3 min, submit for LC-MS/MS analysis.
Frozen unknown plasma samples were completely thawed at room temperature and vortexed thoroughly. With a pipette, 50 μL of plasma was transferred into a 2.0 mL Eppendorf tube. 50 μL of 0.1N HCl and 800 μL ethyl acetate were added into each sample. The sample mixture was vortexed for approximately 3 min.

[1] = female, SD, rat, in vivo, iv, 1.25 mg/kg, 153 in plasma, IV 1.25 mg/kg, Mean
[2] = female, SD, rat, in vivo, iv, 1.25 mg/kg, 153 in plasma, IV 1.25 mg/kg, rat 1
[3] = female, SD, rat, in vivo, iv, 1.25 mg/kg, 153 in plasma, IV 1.25 mg/kg, rat 2

SMILES: CCCOC(=O)C1C2CCC(O2)C1C(=O)N1CCN(C)CC1 (stereo not drawn) [Compound 153, 3-(4-Methylpiperazine-1-carbonyl)-7-oxa-bicyclo[2,2,1]heptane-2-carboxylic acid propyl ester]
- F (153, PO 1.25 mg/kg vs IV 1.25 mg/kg, Mean): 55.41%
- conversion to endothal in the plasma (statement) (153 administered to rats): converted to endothal
- Tmax (153 in plasma, IV 1.25 mg/kg, Mean): 15 min
- Tmax (153 in plasma, IV 1.25 mg/kg, rat 2): 15 min
- Tmax (153 in plasma, PO 1.25 mg/kg, rat 2): 30 min
- AUClast of 153 in brain (153 iv 1.25 mg/kg): 39.4 ng·h/g
- AUClast of 153 in liver (153 iv 1.25 mg/kg): 500 ng·h/g
- oral availability of 153 (statement) (153 po 1.25 mg/kg): orally available
- AUC (Brain, 1.25 mg/kg IV, Mean): 39.4 ng·h/mL
- AUC0-∞ (Brain, 1.25 mg/kg IV, Mean): 39.35 ng·h/mL
- Tmax (Brain, 1.25 mg/kg IV, Mean): 15 min
- AUC (Brain, 1.25 mg/kg IV, rat 1): 39.2 ng·h/mL
- AUC0-∞ (Brain, 1.25 mg/kg IV, rat 1): 39.2 ng·h/mL
- Tmax (Brain, 1.25 mg/kg IV, rat 1): 15 min
- AUC (Brain, 1.25 mg/kg IV, rat 2): 39.5 ng·h/mL
- AUC0-∞ (Brain, 1.25 mg/kg IV, rat 2): 39.5 ng·h/mL
- Tmax (Brain, 1.25 mg/kg IV, rat 2): 15 min
- AUC (Liver, 1.25 mg/kg IV, Mean): 500 ng·h/mL
- AUC0-∞ (Liver, 1.25 mg/kg IV, Mean): 500 ng·h/mL
- AUC (Liver, 1.25 mg/kg IV, rat 1): 547 ng·h/mL
- AUC0-∞ (Liver, 1.25 mg/kg IV, rat 1): 547 ng·h/mL
- Tmax (Liver, 1.25 mg/kg IV, rat 1): 15 min
- AUC (Liver, 1.25 mg/kg IV, rat 2): 453 ng·h/mL
- AUC0-∞ (Liver, 1.25 mg/kg IV, rat 2): 453 ng·h/mL
- Tmax (Liver, 1.25 mg/kg IV, rat 2): 15 min
- 153 plasma concentration (title) / Liver concentration (1.25 mg/kg, 6 hr, Rat 1): BLQ
- 153 plasma concentration (title) / Liver concentration (1.25 mg/kg, 6 hr, Rat 2): BLQ
- 153 plasma concentration (title) / Liver concentration (1.25 mg/kg, 10 hr, Rat 1): BLQ
- Tmax (female, SD, in vivo, 153 in plasma, IV 1.25 mg/kg, rat 1, read-out: Tmax): 15 min
- Tmax (female, SD, in vivo, 153 in plasma, PO 1.25 mg/kg, rat 1, read-out: Tmax): 30 min
- AUC(0-inf) [1]: 296 ng·h/mL
- AUC (female, SD, rat, in vivo, iv, 1.25 mg/kg, 153 in plasma, IV 1.25 mg/kg, Mean, read-out: AUC): 295 ng·h/mL
- Cmax (female, SD, rat, in vivo, iv, 1.25 mg/kg, 153 in plasma, IV 1.25 mg/kg, Mean, read-out: Cmax): 557 ng/mL
- MRT last [1]: 39.4 min
- half-life (female, SD, rat, in vivo, iv, 1.25 mg/kg, 153 in plasma, IV 1.25 mg/kg, Mean, read-out: T1/2 (converted)): 55.3 min
- AUC(0-inf) [2]: 303 ng·h/mL
- AUC (female, SD, rat, in vivo, iv, 1.25 mg/kg, 153 in plasma, IV 1.25 mg/kg, rat 1, read-out: AUC): 303 ng·h/mL
- Cmax (female, SD, rat, in vivo, iv, 1.25 mg/kg, 153 in plasma, IV 1.25 mg/kg, rat 1, read-out: Cmax): 563 ng/mL
- MRT last [2]: 40 min
- half-life (female, SD, rat, in vivo, iv, 1.25 mg/kg, 153 in plasma, IV 1.25 mg/kg, rat 1, read-out: T1/2 (converted)): 54.4 min
- AUC(0-inf) [3]: 288 ng·h/mL
- AUC (female, SD, rat, in vivo, iv, 1.25 mg/kg, 153 in plasma, IV 1.25 mg/kg, rat 2, read-out: AUC): 288 ng·h/mL
- Cmax (female, SD, rat, in vivo, iv, 1.25 mg/kg, 153 in plasma, IV 1.25 mg/kg, rat 2, read-out: Cmax): 550 ng/mL
- MRT last [3]: 38.8 min
- half-life (female, SD, rat, in vivo, iv, 1.25 mg/kg, 153 in plasma, IV 1.25 mg/kg, rat 2, read-out: T1/2 (converted)): 56 min
- half-life (female, SD, rat, in vivo, iv, 1.25 mg/kg, 153 iv 1.25 mg/kg, read-out: T1/2 of 153 in brain (converted)): 35.8 min
- half-life (female, SD, rat, in vivo, iv, 1.25 mg/kg, 153 iv 1.25 mg/kg, read-out: T1/2 of 153 in liver (converted)): 37.6 min
- half-life (female, SD, rat, in vivo, iv, 1.25 mg/kg, 153 iv 1.25 mg/kg, read-out: T1/2 of 153 in plasma (converted)): 55.3 min
- Cmax (female, SD, rat, in vivo, iv, 1.25 mg/kg, 153 iv 1.25 mg/kg, read-out: mean Cmax of 153 in brain): 42.7 ng/g
- Cmax (female, SD, rat, in vivo, iv, 1.25 mg/kg, 153 iv 1.25 mg/kg, read-out: mean Cmax of 153 in liver): 762 ng/g
- Cmax (female, SD, rat, in vivo, iv, 1.25 mg/kg, 153 iv 1.25 mg/kg, read-out: mean Cmax of 153 in plasma): 557 ng/mL
- Cmax (female, SD, rat, in vivo, iv, 1.25 mg/kg, Liver, 1.25 mg/kg IV, rat 1, read-out: Cmax): 872 ng/g
- MRT last (female, SD, rat, in vivo, iv, 1.25 mg/kg, Liver, 1.25 mg/kg IV, rat 1): 44.7 min
- half-life (female, SD, rat, in vivo, iv, 1.25 mg/kg, Liver, 1.25 mg/kg IV, rat 1, read-out: T1/2 (converted)): 36.5 min
- Cmax (female, SD, rat, in vivo, iv, 1.25 mg/kg, Liver, 1.25 mg/kg IV, rat 2, read-out: Cmax): 652 ng/g
- MRT last (female, SD, rat, in vivo, iv, 1.25 mg/kg, Liver, 1.25 mg/kg IV, rat 2): 49.5 min
- concentration at 0.25 h (female, SD, rat, in vivo, iv, 1.25 mg/kg, iv 1.25 mg/kg, Mean, read-out: 153 brain concentration): 42.7 ng/g
- concentration at 0.25 h (female, SD, rat, in vivo, iv, 1.25 mg/kg, iv 1.25 mg/kg, Mean, read-out: 153 liver concentration): 762 ng/g
- concentration at 0.25 h (female, SD, rat, in vivo, iv, 1.25 mg/kg, iv 1.25 mg/kg, Mean, read-out: 153 plasma concentration): 557 ng/mL
- concentration at 0.25 h (female, SD, rat, in vivo, iv, 1.25 mg/kg, iv 1.25 mg/kg, Rat 1, read-out: 153 brain concentration): 45 ng/g
- concentration at 0.25 h (female, SD, rat, in vivo, iv, 1.25 mg/kg, iv 1.25 mg/kg, Rat 1, read-out: 153 liver concentration): 872 ng/g
- concentration at 0.25 h (female, SD, rat, in vivo, iv, 1.25 mg/kg, iv 1.25 mg/kg, Rat 1, read-out: 153 plasma concentration): 563 ng/mL
- concentration at 0.25 h (female, SD, rat, in vivo, iv, 1.25 mg/kg, iv 1.25 mg/kg, Rat 2, read-out: 153 brain concentration): 40.3 ng/g
- concentration at 0.25 h (female, SD, rat, in vivo, iv, 1.25 mg/kg, iv 1.25 mg/kg, Rat 2, read-out: 153 liver concentration): 652 ng/g
- concentration at 0.25 h (female, SD, rat, in vivo, iv, 1.25 mg/kg, iv 1.25 mg/kg, Rat 2, read-out: 153 plasma concentration): 550 ng/mL
- concentration at 1 h (female, SD, rat, in vivo, iv, 1.25 mg/kg, iv 1.25 mg/kg, 1 hr, Mean, read-out: 153 brain concentration): 14.1 ng/g
